The IC50 is the point on the concentration scale where inhibition reaches its midpoint.

Converted amounts (≈) assume the structure as drawn. Where two headings read alike, the source gives them in different places. Where only a bound is given, the exact number is not on record here.

What all share (type): cell-based
One assay relates to E. coli (BW25113). The assay is described as follows: 50% growth inhibitory concentration (IC50) determination assay, E. coli. Conditions: Escherichia coli, read-out: IC50 (μM) E. coli K12 BW25113. As to the method:
(§1) The in vitro antimicrobial activity of the compounds against E. coli (BW25113, obtained from Coli Genetic Stock Center, #7636) and K. pneumoniae (ATCC10031) was determined according to the following procedure:
(§2) The assay used a 10-points Iso-Sensitest broth medium to measure quantitatively the in vitro activity of the compounds against E. coli BW25113 and K. pneumoniae ATCC 10031.
(§3) Stock compounds in DMSO were serially two-fold diluted (range from 50 to 0.097 μM final concentration) in 384 wells microtiter plates and inoculated with 49 μL the bacterial suspension in Iso-Sensitest broth medium to have a final cell concentration of ˜5×10^5 CFU/mL in a final volume/well of 50 μL/well. Microtiter plates were incubated at 35±2° C.
(§4) Bacterial cell growth was determined with the measurement of optical density at λ=600 nm each 20 minutes over a time course of 16 h.
(§5) Growth inhibition was calculated during the logarithmic growth of the bacterial cells with determination of the concentration inhibiting 50% (IC50) of the growth.

Assay [1] has as its system K. pneumoniae (ATCC10031). The assay is described as follows: 50% growth inhibitory concentration (IC50) determination assay, K. pneumoniae. Conditions: Klebsiella pneumoniae, read-out: IC50 (μM) K. pneumoniae ATCC10031. As to the method: as §1, §2, §3, §4, §5
For the next assay, the system named is E. coli (ATCC 25922). The assay can be described thus: Minimal Inhibitory Concentration (MIC) assay. Conditions: Escherichia coli, ATCC25922; CAMHB, 20 hours at 35° C.; read-out: MIC (μg/mL) E. coli ATCC 25922. As to the method: The in vitro potency of compounds to inhibit E. coli (ATCC 25922) growth was assessed by MIC (Minimal Inhibitory Concentration) assay. Samples were prepared from 10 mM DMSO stock solutions. After serial 2-fold dilution in DMSO in a master plate (Greiner, Cat No: 651201), 180 μL sterile distilled water was added to 20 μL each aliquot of the samples. Then 10 μL diluted compounds were transferred into a new assay plate (Costar, 3599).
The growth medium […] Mueller Hinton Broth (CAMHB) was prepared by adding the 20 mg per liter CaCl2 and 20 mg per liter MgCl2 into the MHB medium (Jianglai Company, sterilized).
Vials of each of the test microorganisms were maintained frozen in the vapor phase of a liquid nitrogen freezer. Took out the bacteria E. coli ATCC 25922 (KWIKSTIK, 0335K) from liquid nitrogen freezer, thawed it in room temperature, and diluted the bacterial in the CAMHB medium to achieve a final inoculum of 5×10^5 CFU/mL, 90 μL CAMHB with bacteria was dispensed to the assay plate and pipetted 5 times.
Then the assay plates were incubated for 20 hours at 35° C. in ambient air. Following incubation, the MIC (μg/mL), the lowest concentration of drug that inhibits visible growth of the microorganism was read and recorded throw the microscope.

The mark [2] stands for this setting: BW25113, growth inhibition, Iso-Sensitest broth, OD 600 nm over 16 h.
Where [3] appears, read: ATCC10031, growth inhibition, Iso-Sensitest broth, OD 600 nm over 16 h, * = detection limit.

Consider `CNc1cc(F)cc2c1[nH]c1ncc(-c3cncc(C#N)c3)c(-n3cc(C(F)(F)F)cn3)c12` [Example 1.08, 5-[6-Fluoro-8-(methylamino)-4-[4-(trifluoromethyl)pyrazol-1-yl]-9H-pyrido[2,3-b]indol-3-yl]pyridine-3-carbonitrile], for which the IC50 with E. coli (BW25113) (setting [2]) stood at 1.25 µM; in assay [1] (setting [3]) it was 0.102 µM. As for `CCNc1cc(F)cc2c1[nH]c1ncc(-c3cnc([C@H](C)O)nc3)c(-n3ccc(C(F)(F)F)n3)c12` [Example 1.57, (1S)-1-[5-[8-(ethylamino)-6-fluoro-4-[3-(trifluoromethyl)pyrazol-1-yl]-9H-pyrido[2,3-b]indol-3-yl]pyrimidin-2-yl]ethanol], the figures for the IC50 (in the assay with E. coli (BW25113) (setting [2]); in assay [1] (setting [3])) were 0.631 µM and not above 0.098 µM, respectively. Moreover, in the assay with E. coli (ATCC 25922), the MIC is 0.284 µg/mL (≈ 0.585 µM). On to `CCNc1cc(F)cc2c1[nH]c1ncc(-c3cnc(OC4CCNC4)nc3)c(-n3ccc(C(F)(F)F)n3)c12` (centres unmarked) [Example 1.20, N-Ethyl-6-fluoro-3-(2-pyrrolidin-3-yloxypyrimidin-5-yl)-4-[3-(trifluoromethyl)pyrazol-1-yl]-9H-pyrido[2,3-b]indol-8-amine], for which the half-inhibitory concentration (IC50) with E. coli (BW25113) (BW25113, 16 h) was 1.48 µM; in assay [1] (ATCC10031, 16 h), not above 0.098 µM. Take `CCNc1cc(F)cc2c1[nH]c1ncc(-c3cnc(OCC(C)(C)N)nc3)c(-n3ccc(C(F)(F)F)n3)c12` [Example 1.30, 3-[2-(2-Amino-2-methyl-propoxy)pyrimidin-5-yl]-N-ethyl-6-fluoro-4-[3-(trifluoromethyl)pyrazol-1-yl]-9H-pyrido[2,3-b]indol-8-amine]: the results for the 50% inhibitory concentration (IC50) (in the assay with E. coli (BW25113) (setting [2]); in assay [1] (setting [3])) were 1.56 µM and 0.159 µM, respectively.

In the case of `CCNc1cc(F)cc2c1[nH]c1ncc(-c3cncc(CO)c3)c(-n3ccc(C(F)(F)F)n3)c12` [Example 1.36, [5-[8-(Ethylamino)-6-fluoro-4-[3-(trifluoromethyl)pyrazol-1-yl]-9H-pyrido[2,3-b]indol-3-yl]-3-pyridyl]methanol], the IC50 with E. coli (BW25113) (setting [2]) was 0.928 µM; in assay [1] (setting [3]), not above 0.098 µM.

Turning to `CCc1ncc(-c2cnc3[nH]c4c(NC)cc(F)cc4c3c2-n2ccc(C(F)(F)F)n2)cn1` [Example 1.47, 3-(2-Ethylpyrimidin-5-yl)-6-fluoro-N-methyl-4-[3-(trifluoromethyl)pyrazol-1-yl]-9H-pyrido[2,3-b]indol-8-amine], the IC50 in the assay on E. coli (BW25113) (setting [2]) was found to be 1.29 µM; in assay [1] (setting [3]), 0.105 µM. In the case of `CCNc1cc(F)cc2c1[nH]c1ncc(-c3cnc(OC4CNC4)nc3)c(-n3ccc(C(F)(F)F)n3)c12` [Example 1.23, 3-[2-(Azetidin-3-yloxy)pyrimidin-5-yl]-N-ethyl-6-fluoro-4-[3-(trifluoromethyl)pyrazol-1-yl]-9H-pyrido[2,3-b]indol-8-amine], the 50% inhibitory concentration (IC50) was 1.98 µM in the assay with E. coli (BW25113) (setting [2]) and not above 0.098 µM in assay [1] (setting [3]). The corresponding values for `CCNc1cc(F)cc2c1[nH]c1ncc(-c3cnc4c(C#N)cnn4c3)c(-n3ccc(C(F)(F)F)n3)c12` [Example 1.59, 6-[8-(ethylamino)-6-fluoro-4-[3-(trifluoromethyl)pyrazol-1-yl]-9H-pyrido[2,3-b]indol-3-yl]pyrazolo[1,5-a]pyrimidine-3-carbonitrile] are 1.87 µM and 0.368 µM. Regarding `CCNc1cc(F)cc2c1[nH]c1ncc(-c3cnc(O[C@H]4CCNC4)nc3)c(-n3ccc(C(F)(F)F)n3)c12` [Example 1.56, N-ethyl-6-fluoro-3-[2-[(3S)-pyrrolidin-3-yl]oxypyrimidin-5-yl]-4-[3-(trifluoromethyl)pyrazol-1-yl]-9H-pyrido[2,3-b]indol-8-amine], the 50% inhibitory concentration (IC50) was 1 µM with E. coli (BW25113) (BW25113, 16 h) and not above 0.098 µM in assay [1] (ATCC10031, 16 h). Consider `CCNc1cc(F)cc2c1[nH]c1ncc(-c3cncc(C(=O)NC4(COC)CC4)c3)c(-n3ccc(C(F)(F)F)n3)c12` [Example 3.07, 5-[8-(ethylamino)-6-fluoro-4-[3-(trifluoromethyl)pyrazol-1-yl]-9H-pyrido[2,3-b]indol-3-yl]-N-[1-(methoxymethyl)cyclopropyl]pyridine-3-carboxamide], for which, in the assay on E. coli (ATCC 25922), the MIC came to 0.767 µg/mL (≈ 1.35 µM).

As for `CCNc1cc(F)cc2c1[nH]c1ncc(-c3cncc(Cc4nnc(C)o4)c3)c(-n3ccc(C(F)(F)F)n3)c12` [Example 1.58, N-ethyl-6-fluoro-3-[5-[(5-methyl-1,3,4-oxadiazol-2-yl)methyl]-3-pyridyl]-4-[3-(trifluoromethyl)pyrazol-1-yl]-9H-pyrido[2,3-b]indol-8-amine], the figures for the concentration for half-maximal inhibition (IC50) (with E. coli (BW25113) (setting [2]); in assay [1] (setting [3])) were 1.52 µM and not above 0.098 µM, respectively.

`CCNc1cc(F)cc2c1[nH]c1ncc(-c3cnc(NCCOC)nc3)c(-n3ccc(C(F)(F)F)n3)c12` [Example 1.13, N-Ethyl-6-fluoro-3-[2-(2-methoxyethylamino)pyrimidin-5-yl]-4-[3-(trifluoromethyl)pyrazol-1-yl]-9H-pyrido[2,3-b]indol-8-amine]: the IC50 in the assay on E. coli (BW25113) (setting [2]) was found to be 1.77 µM; in assay [1] (setting [3]), 0.287 µM. For `CCNc1cc(F)cc2c1[nH]c1ncc(-c3cncc(C#N)c3)c(-n3cc(CO)c(C(F)(F)F)n3)c12` [Example 5.01, 5-[8-(ethylamino)-6-fluoro-4-[4-(hydroxymethyl)-3-(trifluoromethyl)pyrazol-1-yl]-9H-pyrido[2,3-b]indol-3-yl]pyridine-3-carbonitrile] the same measures were 0.971 µM and not above 0.098 µM. For `CCNc1cc(F)cc2c1[nH]c1ncc(-c3cnc(N4CCNCC4)nc3)c(-n3ccc(C(F)(F)F)n3)c12` [Example 1.52, N-ethyl-6-fluoro-3-(2-piperazin-1-ylpyrimidin-5-yl)-4-[3-(trifluoromethyl)pyrazol-1-yl]-9H-pyrido[2,3-b]indol-8-amine] the same measures were 1.22 µM and 0.146 µM.

On to `CCNc1cc(F)cc2c1[nH]c1ncc(-c3cnc(O[C@@H]4CCNC4)nc3)c(-n3ccc(C(F)(F)F)n3)c12` [Example 1.55, N-ethyl-6-fluoro-3-[2-[(3R)-pyrrolidin-3-yl]oxypyrimidin-5-yl]-4-[3-(trifluoromethyl)pyrazol-1-yl]-9H-pyrido[2,3-b]indol-8-amine], for which the concentration for half-maximal inhibition (IC50) was 1.03 µM with E. coli (BW25113) (BW25113, 16 h) and not above 0.098 µM in assay [1] (ATCC10031, 16 h). `CNc1cc(F)cc2c1[nH]c1ncc(-c3cnc(OC)nc3)c(-n3ccc(C(F)(F)F)n3)c12` [Example 1.02, 6-Fluoro-3-(2-methoxypyrimidin-5-yl)-N-methyl-4-[3-(trifluoromethyl)pyrazol-1-yl]-9H-pyrido[2,3-b]indol-8-amine]: the IC50 with E. coli (BW25113) (setting [2]) is 1.62 µM; in assay [1] (setting [3]), 0.108 µM.

`CCNc1cc(F)cc2c1[nH]c1ncc(-c3cnc(NC4CCOC4)nc3)c(-n3ccc(C(F)(F)F)n3)c12` (centres unmarked) [Example 1.25, N-Ethyl-6-fluoro-3-[2-(tetrahydrofuran-3-ylamino)pyrimidin-5-yl]-4-[3-(trifluoromethyl)pyrazol-1-yl]-9H-pyrido[2,3-b]indol-8-amine]: in the assay on E. coli (ATCC 25922), the MIC amounted to 0.751 µg/mL (≈ 1.43 µM). `CCNc1cc(F)cc2c1[nH]c1ncc(-c3cncc(C#N)c3)c(-n3cc(C(N)=O)c(C(F)(F)F)n3)c12` [Example 4.01, 1-(3-(5-Cyanopyridin-3-yl)-8-(ethylamino)-6-fluoro-9H-pyrido[2,3-b]indol-4-yl)-3-(trifluoromethyl)-1H-pyrazole-4-carboxamide]: the IC50 in the assay with E. coli (BW25113) (setting [2]) was 1.74 µM; in assay [1] (setting [3]) it was not above 0.098 µM.

(Values after patent US20210309658A1, “ARYL COMPOUNDS FOR THE TREATMENT AND PROPHYLAXIS OF BACTERIAL INFECTION” (Hoffmann-La Roche Inc., priority 2018, published 2021).)
